Assays:
[1] = biological target: T1, GST-LXRβ ligand-binding domain (Homo sapiens, UniProt P55055, DUP175-175); assay: TR-FRETβ activity assay (LXRβ-LBD / NCoA3 coactivator peptide, prestimulated with 24(S)-25-epoxycholesterol); format: biochemical; parameters: key to behavior in FRET assay: ag=agonist; ia=inverse agonist; settings: for EC50: 1 μM 24(S)-25-epoxycholesterol as prestimulating agonist, read-out: FRETβ activity range (EC50); for behavior in FRET assay: agonist or inverse agonist
T1 construct: amino acids 156-461; NP009052; made in house; host or cells: E. coli
T1 sequence (P55055 with tags, fused parts or gaps DUP175-175): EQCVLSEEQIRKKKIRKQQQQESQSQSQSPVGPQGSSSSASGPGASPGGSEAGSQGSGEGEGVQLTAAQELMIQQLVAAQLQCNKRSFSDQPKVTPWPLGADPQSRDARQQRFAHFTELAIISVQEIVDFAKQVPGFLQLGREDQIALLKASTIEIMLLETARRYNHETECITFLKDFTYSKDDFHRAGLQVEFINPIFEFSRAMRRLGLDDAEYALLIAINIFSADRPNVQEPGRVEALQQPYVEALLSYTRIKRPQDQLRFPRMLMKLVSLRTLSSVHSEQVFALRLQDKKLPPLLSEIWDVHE
Outline: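 E. coli-expressed GST-LXRβ LBD (aa 156-461) at 76 nM with biotinylated NCoA3 coactivator peptide (400 nM), in 240 mM KCl, BSA and Triton-X-100. Anti-GST-Tb cryptate/streptavidin-XL665 TR-FRET after 1 h equilibration at 4 °C, excitation 340 nm, emission 615 and 665 nm. Run in triplicate.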

[2] = biological target: T2, LXRα ligand-binding domain (LBD) (Homo sapiens, UniProt Q13133); assay: LXR Gal4 reporter transient transfection assay (M2H), Gal4α LBD; format: cell-based; settings: HEK293 cells; for EC50: read-out: M2H Gal4α LBD activity range (EC50)
T2 construct: expressed in transfected cells; host or cells: HEK293
T2 sequence (Q13133 155-447): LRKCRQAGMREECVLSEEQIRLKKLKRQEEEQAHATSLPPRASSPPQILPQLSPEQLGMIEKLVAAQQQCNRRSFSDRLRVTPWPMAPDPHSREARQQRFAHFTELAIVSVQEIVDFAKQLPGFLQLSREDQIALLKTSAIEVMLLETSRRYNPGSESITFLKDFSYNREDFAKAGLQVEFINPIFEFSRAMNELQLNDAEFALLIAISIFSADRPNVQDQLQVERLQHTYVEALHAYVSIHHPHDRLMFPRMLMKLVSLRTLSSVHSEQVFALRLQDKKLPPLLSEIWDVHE
Procedure: (§1) The tested compounds were usually dissolved, tested and stored as 20 mM stock solutions in DMSO. Since sulfonyl acetic acid derivatives tend to decarboxylate under these conditions, these stock solutions were prepared, tested and stored as 20 mM DMSO stock solutions containing 100 mM trifluoroacetic acid (5 equivalents). Sulfonyl acetic acid derivatives are shelf stable as solid at rt for long time as reported by Griesbrecht et al. (Synlett 2010:374) or Faucher et al. (J. Med. Chem. 2004; 47:18).
(§2) LXR Gal4 Reporter Transient Transfection Assays
(§3) LXRα and LXRβ activity status was determined via detection of interaction with coactivator and corepressor proteins in mammalian two-hybrid experiments (M2H). For this, via transient transfection the full length (FL) proteins of LXRα (amino acids 1-447; NP005684; SEQ ID NO:7) or LXRβ-(amino acids 1-461; NP009052; SEQ ID NO:8) or the ligand-binding domains (LBD) of LXRα (amino acids 155-447 SEQ ID NO:3) or LXRβ (amino acids 156-461; SEQ ID NO:4) were expressed from pCMV-AD (Stratagene) as fusions to the transcriptional activation domain of NFkB. As cofactors, domains of either the steroid receptor coactivator 1 (SRC1; amino acids 552-887; SEQ ID NO:5) or of the corepressor NCoR (amino acids 1903-2312 SEQ ID NO:6) were expressed as fusions to the DNA binding domain of the yeast transcription factor GAL4 (from pCMV-BD; Stratagene). Interaction was monitored via activation of a coexpressed Firefly Luciferase Reporter gene under control of a promoter containing repetitive GAL4 response elements (vector pFRLuc; Stratagene). Transfection efficiency was controlled via cotransfection of constitutively active pRL-CMV Renilla reniformis luciferase reporter (Promega). HEK293 cells were grown in minimum essential medium (MEM) with 2 mM L-glutamine and Earle's balanced salt solution supplemented with 8.3% fetal bovine serum, 0.1 mM non-essential amino acids, 1 mM sodium pyruvate, at 37° C. in 5% CO2. 3.5×10^4 cells/well were plated in 96-well cell culture plates in growth medium supplemented with 8.3% fetal bovine serum for 16-20 h to ˜90% confluency. For transfection, medium was taken off and LXR and cofactor expressing plasmids as well as the reporter plasmids are added in 30 μL OPTIMEM/well including polyethylene-imine (PEI) as vehicle. Typical amounts of plasmids transfected/well: pCMV-AD-LXR (5 ng), pCMV-BD-cofactor (5 ng), pFR-Luc (100 ng), pRL-CMV (0.5 ng). Compound stocks were prepared in DMSO, prediluted in MEM to a total volume of 120 μL, and added 4 h after addition of the transfection mixture (final vehicle concentration not exceeding 0.2%). Cells were incubated for additional 16 h, lysed for 10 min in 1× Passive Lysis Buffer (Promega) and Firefly and Renilla luciferase activities were measured sequentially in the same cell extract using buffers containing D-luciferine and coelenterazine, respectively. Measurements of luminescence were done in a BMG-Iuminometer.

[3] = biological target: T3, LXRβ ligand-binding domain (LBD) (Homo sapiens, UniProt P55055, DUP175-175); assay: LXR Gal4 reporter transient transfection assay (M2H), Gal4β LBD; format: cell-based; settings: HEK293 cells; for EC50: read-out: M2H Gal4β LBD activity range (EC50)
T3 construct: LXRβ (amino acids 156-461); expressed in transfected cells; host or cells: HEK293
T3 sequence (P55055 with tags, fused parts or gaps DUP175-175): T1 sequence (P55055 with tags, fused parts or gaps DUP175-175)
Procedure: as §1, §2, §3

SMILES	EC50 [1] [µM]	behavior in FRET assay [1]	EC50 [2] [µM]	EC50 [3] [µM]	M2H Gal4α LBD activity range (EC50) [2]	M2H Gal4β LBD activity range (EC50) [3]
Cc1cc(C)c(S(=O)(=O)N(Cc2ccc(-c3cccc(C4(C(=O)O)CCOCC4)c3)cc2)Cc2ccc(C(F)(F)F)o2)c(C)c1 [7/8]	> 10	ia	0.1 to 1	0.1 to 1	–	–
Cc1cc(C)c(S(=O)(=O)N(Cc2ccc(C3=CS(=O)(=O)C(CC(=O)O)=C3)cc2)Cc2ccc(C(F)(F)F)o2)c(C)c1 [25/3]	1 to 10	ia	0.1 to 1	0.1 to 1	–	–
Cc1cc(C)c(S(=O)(=O)N(Cc2ccc(-c3cccc([S+]([O-])CC(=O)O)c3)cc2)Cc2ccc(C(F)(F)F)o2)c(C)c1 (centres unmarked) [11/17]	1 to 10	ia	1 to 10	1 to 10	–	–
Cc1cc(C)c(S(=O)(=O)N(Cc2ccc(-c3cccc(C(C)C(=O)O)c3)cc2)Cc2ccc(C(F)(F)F)o2)c(C)c1 (centres unmarked) [7/4]	0.1 to 1	ia	< 0.1	< 0.1	–	–
Cc1cc(C)c(S(=O)(=O)N(Cc2ccc(-c3cccc(C4(C(=O)O)CC4)c3)cc2)Cc2ccc(C(F)(F)F)o2)c(C)c1 [7/6]	0.1 to 1	ia	0.1 to 1	< 0.1	–	–
COc1cc(-c2ccc(CO)c(C(C)(C)C(=O)[O-])c2)ccc1CN(Cc1ccc(C(F)(F)F)o1)S(=O)(=O)c1c(C)ccc2ccccc12.[Na+] [Example 23, Sodium 2-(4-(hydroxymethyl)-3′-methoxy-4′-(((2-methyl-N-((5-(trifluoromethyl)furan-2-yl)methyl)naphthalene)-1-sulfonamido)methyl)-[1,1′-biphenyl]-3-yl)-2-methylpropanoate]	0.1 to 1	ia	< 0.1	< 0.1	–	–
Cc1cc(C)c(S(=O)(=O)N(Cc2ccc(-c3cccc(C(F)(F)C(=O)O)c3)cc2)Cc2ccc(C(F)(F)F)o2)c(C)c1 [5/4]	0.1 to 1	ia	0.1 to 1	0.1 to 1	–	–
Cc1cc(C)c(S(=O)(=O)N(Cc2ccc(-c3cncc(C(C)(C)C(=O)O)c3)cc2)Cc2ccc(C(F)(F)F)o2)c(C)c1 [11/18]	0.1 to 1	ia	0.1 to 1	< 0.1	–	–
COc1ccc(C(C)(C)C(=O)O)cc1-c1ccc(CN(Cc2ccc(C(F)(F)F)o2)S(=O)(=O)c2c(C)cc(C)cc2C)cc1 [7/10]	1 to 10	ia	1 to 10	0.1 to 1	–	–
Cc1cc(C)c(S(=O)(=O)N(Cc2ccc(C(F)(F)F)o2)C(C)c2ccc(-c3cccc(CC(=O)O)c3)cc2)c(C)c1 (centres unmarked) [Example 2/1]	1 to 10	ia	–	–	inactive	inactive
Cc1cc(C)c(S(=O)(=O)N(Cc2ccc(-c3cccc(S(=O)(=O)NCC(=O)O)c3)cc2)Cc2ccc(C(F)(F)F)o2)c(C)c1 [Example 25/1]	1 to 10	ia	1 to 10	1 to 10	–	–
Cc1cc(C)c(S(=O)(=O)N(Cc2ccc(-c3cccc(CC(=O)O)c3)cc2)Cc2cccc(Br)c2)c(C)c1 [2/3]	1 to 10	ia	0.1 to 1	0.1 to 1	–	–
Cc1cc(C)c(S(=O)(=O)N(Cc2ccc(-c3cccc(S(=O)(=O)O)c3)cc2)Cc2ccc(C(F)(F)F)o2)c(C)c1 [Example 3, 4′-(((2,4,6-Trimethyl-N-((5-(trifluoromethyl)furan-2-yl)methyl)phenyl)sulfon-amido)methyl)-[1,1′-biphenyl]-3-sulfonic acid]	1 to 10	ia	–	–	inactive	inactive
Cc1cc(C)c(S(=O)(=O)N(Cc2ccc(N3CCCN(CC(=O)O)C3=O)cc2)Cc2ccc(C(F)(F)F)o2)c(C)c1 [Example 16, 2-(2-Oxo-3-(4-(((2,4,6-trimethyl-N-((5-(trifluoromethyl)furan-2-yl)methyl)phenyl)sulfon-amido)methyl)phenyl)tetrahydropyrimidin-1(2H)-yl)acetic acid]	> 10	ia	–	1 to 10	inactive	–
CCOC(=O)Cc1cccc(-c2ccc(CN(Cc3ccc(C(F)(F)F)o3)S(=O)(=O)c3c(C)cc(C)cc3C)cc2)c1 [Example 1]	> 10	ia	0.1 to 1	< 0.1	–	–
Cc1cc(C)c(S(=O)(=O)N(Cc2ccc(C(F)(F)F)o2)CC2CC=C(c3cccc(C(C)(C)C(=O)O)c3)CC2)c(C)c1 (centres unmarked) [Example 19, 2-Methyl-2-(4′-(((2,4,6-trimethyl-N-((5-(trifluoromethyl)furan-2-yl)methyl)phenyl)sulfon-amido)methyl)-2′,3′,4′,5′-tetrahydro-[1,1′-biphenyl]-3-yl)propanoic acid]	0.1 to 1	ia	0.1 to 1	< 0.1	–	–
Cc1cc(C)c(S(=O)(=O)N(Cc2ccc(-c3cccc(OCC(=O)O)c3)cc2)Cc2ccc(C(F)(F)F)o2)c(C)c1 [5/3]	1 to 10	ia	0.1 to 1	0.1 to 1	–	–
COc1ccc(-c2ccc(CN(Cc3ccc(C(F)(F)F)o3)S(=O)(=O)c3c(C)cc(C)cc3C)cc2)cc1C(C)(C)C(=O)O [7/9]	1 to 10	ia	0.1 to 1	< 0.1	–	–
Cc1cc(C)c(S(=O)(=O)N(Cc2ccc(-c3cccc(C(=O)O)c3)cc2)Cc2ccc(C(F)(F)F)o2)c(C)c1 [Example C6, 4′-(((2,4,6-Trimethyl-N-((5-(trifluoromethyl)furan-2-yl)methyl)phenyl)sulfonamido)methyl)-[1,1′-biphenyl]-3-carboxylic acid]	> 10	ia	1 to 10	0.1 to 1	–	–
Cc1cc(C)c(S(=O)(=O)N(Cc2ccc(N3CCCC(C(C)(C)C(=O)O)C3)cc2)Cc2ccc(C(F)(F)F)o2)c(C)c1 (centres unmarked) [16/2]	> 10	ia	0.1 to 1	0.1 to 1	–	–

Source: patent publication US20200115357A1, “LIVER X RECEPTORS (LXR) MODULATORS” (Phenex-FXR GmbH, priority 2017, published 2020)
